The source of these data is patent US12281058B2, “Manganese catalysts and their use in hydrogenation of ketones” (priority 2019, dated 2025).

Test [1] is described as follows: Ketone hydrogenation, general procedure (vial). As to conditions: 2′,6′-dichloro-3′-fluoroacetophenone, 0.1 mol % catalyst, 50 °C, 16 h.
A short description of test [2]: Ketone hydrogenation, general procedure (vial). To be noted: isobutyrophenone; 0.001 equiv. catalyst, 50 °C, 16 h, 50 bar H2; chiral HPLC, (S).
Test [3] is described as follows: Ketone hydrogenation, general procedure (vial). As to conditions: 4′-methoxypropiophenone, 0.001 equiv. catalyst, 50 °C, 16 h.
Test [4] is described as follows: Ketone hydrogenation, general procedure (vial). As to conditions: propiophenone; 0.001 equiv. catalyst, 50 °C, 16 h, 50 bar H2, K2CO3, ethanol; chiral HPLC, (S).
Test [5] can be described thus: Ketone hydrogenation, general procedure (vial). To be noted: 4′-chloropropiophenone, 0.1 mol % catalyst, 50 °C, 16 h.
For test [6] the following is noted: for Conversion (%) / TOF: acetophenone, gas uptake, 20 bar H2, 50 °C; for TOF: at 20% conversion.
Method: The vessel was sealed and pressurised with hydrogen gas (5 bar) and vented. This was repeated twice. The degassed ethanol solution was added via an injection port and the vessel sealed and pressurised with hydrogen gas (20 bar) and vented. This was repeated twice. The pressure was set to 2 bar and the mixture heated to 50° C. at which time the pressure was increased to 20 bar and the experiment started. Gas uptake was monitored by reduction of the pressure in the burette. […] The vessel was cooled to room temperature, vented and the content concentrated to dryness and analysed by ^1H-NMR to confirm full conversion. The uptake curve was converted to conversion by dividing the gas uptake at a time-point by total uptake and multiplied by 100 to get percentage conversion. Substrate and product concentrations could be calculated, from which the turnover frequency (TOF) could be calculated. The TOF was reported at 20% conversion to minimise temperature influence of the vessel setup.
The nature of test [7]: Ketone hydrogenation, general procedure (vial). To be noted: 2′-methoxyacetophenone; 0.1 mol % catalyst, 50 °C, 16 h, 50 bar H2, K2CO3, ethanol.
Test [8] can be described thus: Ketone hydrogenation, general procedure (vial). To be noted: cyclohexylphenylketone; 0.1 mol % catalyst, 50 °C, 16 h, 50 bar H2, K2CO3, ethanol.
Test [9] in a line: Hydrogenation of acetophenone, microwave vials in autoclave (vial method). To be noted: for e.e.: 50 bar H2, chiral HPLC, (S).
A short description of test [10]: Ketone hydrogenation, general procedure (vial). As to conditions: 2′-fluoroacetophenone; 0.1 mol % catalyst, 50 °C, 16 h, 50 bar H2, K2CO3, ethanol.
Test [11] is described as follows: Ketone hydrogenation, general procedure (vial). To be noted: 2′-chloroacetophenone; 0.1 mol % catalyst, 50 °C, 16 h, 50 bar H2, K2CO3, ethanol.

Where two headings read alike, the source gives them in different places.

As to “[(Rc,Sp)—N-2-picolynyl-1-(-2-bis(4-methoxy-3,5-dimethylphenyl)-phosphino)ferrocenylethylamine]-κN^1-κN^2-κ^P-tricarbonyl manganese (I) bromide [compound 2]”, the e.e. in [1] (50 bar H2, chiral HPLC, (S)) is reported as 82%; in test [5] (50 bar H2, chiral HPLC, (S)), 80%. Further, the ee in [2] is reported as 90%; in test [3] (50 bar H2, chiral HPLC, (S)), 70%; in test [4] it was 76%. Further, in [3] (50 bar H2, K2CO3, ethanol), the “conversion to product (NMR analysis)” value worked out at 96%.
As for “[(Rc,Sp)—N-(4-(dimethylamino)pyridine-2-methyl)-1-(˜2-bis(4-methoxy-3,5-dimethylphenyl)phosphino)ferrocenylethylamine]-κN^1-κN^2-κ^P-tricarbonyl manganese (I) bromide [compound 6]”, the Conversion in test [1] (50 bar H2, K2CO3, ethanol) is on record as over 99%; in test [7], over 99%; in test [8], over 99%; in test [9] (0.01 mol % catalyst, 65 °C, 24 h, 50 bar H2), over 99%; in test [9] (0.02 mol % catalyst, 60 °C, 16 h, 50 bar H2) it was over 99%; in [9] (0.1 mol % catalyst, 50 °C, 16 h, 50 bar H2, K2CO3, ethanol), over 99%. The Conversion is reported as over 99% in test [10]; over 99% in test [11]; over 99% in test [5] (50 bar H2, K2CO3, ethanol). For the same substance, the “Conversion (%)” value in [6] (0.05 mol % catalyst, 12 h) is on record as 100%; in [6] (0.1 mol % catalyst, ethanol, run to completion) it was 100%; in test [9] (vial method, 0.1 mol % catalyst, 2 h, 50 bar H2) it was 56.5%. The TOF in [6] (0.05 mol % catalyst) was 237 h⁻¹; in test [6] (0.1 mol % catalyst) it was 230 h⁻¹; in test [9] (vial method, 0.1 mol % catalyst, calculated after 2 h, 50 bar H2) it was 283 h⁻¹. Besides, the “turnover frequency (TOF) with 6 relative to 7” value in [6] (hydrogenation of acetophenone, Table 2) is “at least 3.5 times”. Further, the e.e. in test [9] (0.01 mol % catalyst, 65 °C, 24 h) is 57% (S); in test [9] (0.02 mol % catalyst, 60 °C, 16 h), 51% (S).
